Test results: patent publication US20260317304A1, “TEAD INHIBITORS AND METHODS OF USE” (Sporos BioDiscovery, Inc., priority 2022, published 2026)
“Also recorded” adds a separate entry of the source.

Assays:
SDM103T2 cells = experiment: SDM103T2 proliferation and cell viability assay (CTG); type: cell-based; details: 144 hours
Procedure: SDM103T2 cells were trypsinised, counted and plated at 800 cells/well in 200 μl of growth media in 96 well flat bottom tissue culture treated plates. The plated cells were incubated overnight at 37° C., 5% CO2 before being treated with compounds in triplicate for each assay point. 50 μl of the serially diluted compound was added to each well giving a final DMSO concentration of 0.5% per well and a total volume of 250 μl per well. The treated cells were incubated for 144 hours (6 days) at 37° C., 5% CO2. Following compound treatment the remaining viable cells were detected using the Promega CellTiter-Glo 2.0 assay as follows: 150 μl of media was removed from each of the wells to be assayed and 100 μl of room temperature CellTiter-Glo 2.0 reagent was added. The plate was placed on an orbital shaker at 500 rpm at room temperature for 2 minutes, and then incubated without shaking for a further 10 minutes at room temperature. 150 μl of cell lysate was removed from each well and dispensed into a single well of a white opaque 96 well plate. Luminescence at 545 nm was read using a BMG CLARIOstar plate reader. The luminescent signal was directly proportional to number of viable cells, the percent of viable cells relative to the DMSO control was then calculated for each assay point. Percent viability relative to DMSO control was plotted against compound concentration and a curve fitted with non-linear regression in GraphPad Prism software. EC50 and absolute IC50 values were calculated using GraphPad Prism software as follows: For EC50 values a non-constrained four-parameter logistic curve fit was used (Sigmoidal, 4PL, X is concentration). For Absolute IC50 values the baseline was constrained to Y=0 and top at 100 (Absolute IC50, X is concentration). Area Under the Curve (AUC): Prism computes area-under-the-curve by the trapezoidal method. The analysis sees a fitted curve as simply a series of connected XY points. Prism simply computes the area under the “curve” defined by connecting the points by straight lines. The units of the AUC are the units of the Y axis times units of the X axis.
For EC50 data, the symbol “A” indicates a value of less than 0.2 μM; the symbol “B” indicates a value in the range of from 0.2 μM up to 1 μM; and the symbol “C” indicates a value of greater than 1 μM.

TEAD2 [1] = biological target: TEAD2 (Homo sapiens, UniProt Q15562); experiment: TEAD thermal shift assay (TSA); type: binding; details: Ratio of Protein to Compound 1:3
Chain of TEAD2 (Homo sapiens, UniProt Q15562) (Q15562 whole entry): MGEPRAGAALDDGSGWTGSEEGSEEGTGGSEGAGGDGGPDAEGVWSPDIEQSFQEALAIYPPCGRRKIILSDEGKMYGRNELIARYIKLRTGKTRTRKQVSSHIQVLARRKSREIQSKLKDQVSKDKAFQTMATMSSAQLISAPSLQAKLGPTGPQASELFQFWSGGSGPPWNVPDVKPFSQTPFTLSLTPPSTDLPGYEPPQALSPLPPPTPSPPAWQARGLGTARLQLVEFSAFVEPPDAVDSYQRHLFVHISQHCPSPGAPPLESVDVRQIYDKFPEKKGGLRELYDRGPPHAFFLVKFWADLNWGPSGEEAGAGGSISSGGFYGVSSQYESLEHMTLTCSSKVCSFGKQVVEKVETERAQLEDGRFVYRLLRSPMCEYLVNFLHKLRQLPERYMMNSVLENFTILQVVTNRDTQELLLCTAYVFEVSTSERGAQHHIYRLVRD
Excerpt: (§1) Thermal shift assay (TSA) is a biophysical method to evaluate stability of proteins with change in temperature. The assay measures thermal denaturation temperature in varying conditions such as different drug concentration. For this example, fluorogenic dye was used that bind to unfolded proteins. SYPRO Orange binds non-specifically to hydrophobic surfaces, and water strongly quenches its fluorescence. When the protein unfolds, the exposed hydrophobic surfaces bind the dye, resulting in an increase in fluorescence by excluding water. Detergent micelles also bind the dye and increase background noise dramatically. Binding of small molecules to proteins leads to a stabilization against to thermal denaturation with the degree of thermal stabilization proportional to the strength of binding.
(§2) The study described in this example investigated the change in melting temperature (ΔTm) of TEAD isoforms 1-4 when treated with TEAD inhibitors.
(§3) Tris-HCL was dissolved in 5 mL of Cell culture grade water and allowed to dissolve completely. The pH was adjusted to 8 using NaOH. Additional assay buffer components were added in the order listed above. The buffer was mixed slowly.
(§4) Assay buffer was prepared according to the procedures outlined above and dispensed into test wells. Spyro orange was added to a concentration of 5× in the assay buffer, followed by test compound stock solution which was added to a concentration of 10 μM or 30 μM in the assay buffer.
(§5) The melt cycle was performed in Bio-RAD PCR instrument from 20-95° C. with ramp rate of 1° C./min.

TEAD3 [2] = biological target: TEAD3 (Homo sapiens, UniProt Q99594); experiment: TEAD thermal shift assay (TSA); type: binding; details: Ratio of Protein to Compound 1:3
Chain of TEAD3 (Homo sapiens, UniProt Q99594) (Q99594 whole entry): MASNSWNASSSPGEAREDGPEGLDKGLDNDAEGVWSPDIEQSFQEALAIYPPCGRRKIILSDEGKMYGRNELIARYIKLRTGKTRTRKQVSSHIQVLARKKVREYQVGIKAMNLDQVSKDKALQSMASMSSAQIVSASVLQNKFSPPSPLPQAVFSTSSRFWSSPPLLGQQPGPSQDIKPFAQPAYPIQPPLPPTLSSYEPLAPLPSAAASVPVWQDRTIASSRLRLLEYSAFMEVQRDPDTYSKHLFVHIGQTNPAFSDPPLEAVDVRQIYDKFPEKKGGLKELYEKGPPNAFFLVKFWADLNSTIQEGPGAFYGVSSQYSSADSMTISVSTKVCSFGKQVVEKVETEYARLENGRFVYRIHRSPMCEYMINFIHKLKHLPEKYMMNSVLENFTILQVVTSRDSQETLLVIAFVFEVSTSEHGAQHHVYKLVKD
Excerpt: as §1, §2, §3, §4, §5

TEAD4 [3] = biological target: TEAD4 (Homo sapiens, UniProt Q15561); experiment: TEAD thermal shift assay (TSA); type: binding; details: Ratio of Protein to Compound 1:3
Chain of TEAD4 (Homo sapiens, UniProt Q15561) (Q15561 whole entry): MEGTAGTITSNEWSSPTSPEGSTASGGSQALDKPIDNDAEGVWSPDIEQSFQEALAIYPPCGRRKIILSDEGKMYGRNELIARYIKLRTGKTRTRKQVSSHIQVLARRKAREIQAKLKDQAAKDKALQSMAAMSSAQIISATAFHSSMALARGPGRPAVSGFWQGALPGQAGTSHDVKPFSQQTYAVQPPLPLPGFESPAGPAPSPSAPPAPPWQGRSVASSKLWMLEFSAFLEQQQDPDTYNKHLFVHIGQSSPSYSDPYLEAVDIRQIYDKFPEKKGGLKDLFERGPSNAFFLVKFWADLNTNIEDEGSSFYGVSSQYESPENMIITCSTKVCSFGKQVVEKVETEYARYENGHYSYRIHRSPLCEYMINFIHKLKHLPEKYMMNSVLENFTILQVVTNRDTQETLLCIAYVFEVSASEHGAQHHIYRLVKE
Excerpt: as §1, §2, §3, §4, §5

TEAD isoforms 1-4 [4] = experiment: TEAD thermal shift assay (TSA), outcome in words; type: binding, human
Excerpt: as §1, §2, §3, §4, §5

MSTO-211H xenograft = experiment: Mouse xenograft MSTO-211H tumors compared to prior art TEAD inhibitor; type: in vivo, BALB/c nude mice; details: 7 days of treatment, PO BID, 3 mg/kg Compound 1-1
Procedure: This study evaluated the in vivo anti-tumor efficacy of test compounds in BALB/c nude mice for treatment of MSTO-211H xenograft of lung cancer.
The MSTO-211H tumor cells were maintained in vitro in RPMI 1640 medium supplemented with 10% Fetal bovine serum and 1% Antibiotic-Antimycotic at 37° C. in an atmosphere of 5% CO2 in air. The tumor cells were routinely subcultured twice weekly by trypsin-EDTA. The cells growing in an exponential growth phase were harvested and counted for tumor inoculation.
Each mouse was inoculated subcutaneously at the right flank with MSTO-211H tumor cells (10×10^6+50% matrigel/0.2 mL) for tumor development. Test subjects received vehicle (e.g., 0.5% CMC-Na+1% Tween80) beginning on day 7 after cell inoculation. […]
The major endpoint was to determine if the tumor growth could be delayed. Tumor size was measured twice a week in two dimensions using a caliper, and the volume was expressed in mm^3 using the formula: V=0.5 a×b^2 where a and b are the long and short diameters of the tumor, respectively. […]
Summary statistics, including mean and the standard error of the mean (SEM), were calculated for the tumor volume of each group at each time point. […]
One-tailed T test was performed to compare tumor volumes between two groups. All data were analyzed using GraphPad Prism 6.0. p<0.05 was considered to be statistically significant.

TEAD = details: control compounds; cited from earlier work
[5] = as reported by Tang et al.; cited from earlier work
TEAD1 = details: thermal shift; cited from earlier work
TEAD2 [6] = details: thermal shift; cited from earlier work
TEAD3 [7] = details: thermal shift; cited from earlier work
TEAD4 [8] = details: thermal shift; cited from earlier work
TEAD isoforms 1-4 [9] = details: thermal shift data of Tang and Post; cited from earlier work

TEAD2 ΔTm (TEAD2 [1])	TEAD3 ΔTm (TEAD3 [2])	TEAD4 ΔTm (TEAD4 [3])	thermal shift / TEAD binding (in words) (TEAD isoforms 1-4 [4])	Structure (SMILES)	EC50 (SDM103T2 cells)	change in tumor volume (in words) (MSTO-211H xenograft)	known TEAD inhibition (in words) (TEAD)	half-life (in words) [5]	TEAD1 ΔTm (TEAD1)	TEAD2 ΔTm (TEAD2 [6])	TEAD3 ΔTm (TEAD3 [7])	TEAD4 ΔTm (TEAD4 [8])	TEAD isoform interaction / binding (in words) (TEAD isoforms 1-4 [9])	selectivity over TEAD2 and 3 (in words) (TEAD isoforms 1-4 [9])
1 °C	0 °C	1 °C	pronounced thermal shift only for TEAD1	CNS(=O)(=O)c1ccc(Nc2ccc(C(F)(F)F)cc2)c(-c2cn(C)cn2)c1 [Compound 1-1]	< 200 nM	Tumor growth was observed	known strong TEAD1 and weak TEAD2 inhibitor	long half-life						
				C[C@H](CO)NC(=O)c1ccc2c(Oc3ccc(C(F)(F)F)cc3)cccc2c1 [VT3989]					11.6 °C	8.8 °C	8.5 °C	4.6 °C	primarily interacts with TEAD1-3; also recorded: lower levels of binding to TEAD4	minimal selectivity over TEAD2 and 3
